From US11339183B2, “Phosphate and phosphonate derivatives of 7-amino-5-thio-thiazolo[4,5-d]pyrimidines and their use in treating conditions associated with elevated levels of CX3CR1 and/or CX3CL1” (KANCERA AB, priority 2018, dated 2022)
Where a name gives a salt, the structure may show the parent alone. Values belong to the compound of their own block, whether it stands above or below them.

How the values were obtained:
[1] = Plasma concentration (AUC of plasma Compound A) in mice after intravenous and peroral administration; assay type: in vivo; details: blood 0.083-24 hours; for AUC: male, CD1, mouse, plasma
Method: A peroral dosing solution of Compound A (12 mg/mL) in 30% HP-β-CD in 10 mM Na2PO4 and an intravenous dosing solution of Compound A (2.5 mg/mL) in 30% HP-β-CD in 10 mM Na2PO4 in DPBS were prepared. The intravenous dosing solution was administered to male CD1 mice (weight 28-30 g) via intravenous injection (25 mg/kg) and the peroral dosing solution was administered to male CD1 mice (weight 28-30 g) via oral gavage (120 mg/kg).
Blood was collected from the animals at time points of 0.083, 0.25, 0.5, 1, 2, 4, 6, 12 and 24 hours and analysed for blood plasma concentration, and the data generated were used to calculate the area under the curve (AUC) values shown in Table 5.
A peroral dosing solution of Compound A HCl salt (12 mg/mL) in 30% HP-β-CD in 10 mM Na2PO4 and an intravenous dosing solution of Compound A HCl salt (2.5 mg/mL) in 30% HP-β-CD in 10 mM Na2PO4 in DPBS were prepared. The intravenous dosing solution was administered to male CD1 mice (weight 28-30 g) via intravenous injection (25 mg/kg) and the peroral dosing solution was administered to male CD1 mice (weight 28-30 g) via oral gavage (125 mg/kg).
A peroral dosing solution of Example 1 disodium salt in water (15.4 mg/mL) at a pH of 7.18 and an intravenous dosing solution of Example 1 disodium salt in water (6.4 mg/mL) at a pH of 7.11 were prepared by dissolving Example 1 diammonium salt in water and adjusting the pH with 0.1M NaOH solution. The intravenous dosing solution was administered to male CD1 mice (weight 24-25 g) via tail injection (32 mg/kg) and the peroral dosing solution was administered to male CD1 mice (weight 24-25 g) via oral gavage (154 mg/kg).

[2] = Comparative kinetic solubility in phosphate buffer pH 7.4 (HPLC-UV); assay type: physicochemical; details: aqueous buffer, kinetic from dmso stock, nominal 250 μM in 50 mM phosphate buffer pH 7.4, agitated 1 hour, filtered
Method: Samples of the compound of Example 1 and (2R)-2-[(2-amino-5-{[(1S)-1-phenylethyl]sulfanyl}-[1,3] thiazolo[4,5-d]pyrimidin-7-yl)amino]-4-methylpentan-1-ol. HCl (compound A) were diluted to a nominal concentration of 250 μM in 50 mM phosphate buffer pH 7.4 then agitated for 1 hour and filtered.
Standard solutions of the two compounds at concentrations of 25 and 250 μM in 50:50 acetontrile:water were prepared.
The solutions were then analysed by reverse phase HPLC with UV-detection, and solubility was determined by the ratio of the sample peaks to the standard curve.

[3] = Comparative stability of solutions on long-term storage at room temperature (HPLC-MS); assay type: physicochemical; details: for Degradation products observed on storage in aqueous solution: HPLC-MS, storage at room temperature; for Aqueous solubility (in words): dissolving in pure water / need for co-solvents; for Stability of aqueous formulations to storage (in words): room temperature; for Compound A % area: water + 20% MeOH, 1.75 mg/mL; for Example 1 % area: aqueous solution (MilliQ water) 1.7 mg/mL
[4] = Further stability studies: aqueous solutions stored 60 days at room temperature and/or 40° C. (HPLC-MS); assay type: physicochemical
Method: Aqueous solutions of several of the example compounds were prepared at concentrations of 1.2 mg/mL (10 mg/mL for Example 1 (no salt)) according to the following procedures. • i) Examples 1 b, 2h and 3 (diammonium salts) were dissolved in pure water. • ii) Examples 1d (diammonium salt) and 1n (monoammonium salt) were suspended in water and Na2HPO3 was added until all of the compound was in solution. • iii) Examples 1q, 4f an 4g (no salts) were dissolved in water with added DMSO (100 μL) and (2-hydroxypropyl)-β-cyclodextrin was added until all of the compound was in solution.
The stability of the compounds to long-term storage in aqueous solution at room temperature and/or 40° C. was then assessed by analysis of the solution by HPLC-MS after 60 days.

[5] = aqueous solution 1.2 mg/mL, 40° C., 1d, 1n with Na2HPO3, 1q, 4f, 4g with DMSO and (2-hydroxypropyl)-β-cyclodextrin
[6] = aqueous solution 1.2 mg/mL, room temperature, 1d, 1n with Na2HPO3, 1q, 4f, 4g with DMSO and (2-hydroxypropyl)-β-cyclodextrin

% Area by HPLC (60 days) [4, 5]: 100 % Area
% Area by HPLC (60 days) [4, 6]: 100 % Area
Structure (SMILES): CC(C)C[C@H](COP(=O)(O)O)Nc1nc(SC(C)c2ccccc2F)nc2nc(N)sc12 (stereo partly drawn) [Example 1b, (2R)-2-[(2-Amino-5-{[1-(2-fluorophenyl)ethyl]sulfanyl}[1,3]thiazolo[4,5-d]pyrimidin-7-yl)amino]-4-methylpentyl dihydrogen phosphate]

% Area by HPLC (60 days) [4, 5]: 99.7 % Area
% Area by HPLC (60 days) [4, 6]: 98.0 % Area
Structure (SMILES): CC(C)C[C@H](COP(=O)(O)O)Nc1nc(SC(C)c2ccc(Cl)cn2)nc2nc(N)sc12 (stereo partly drawn) [Example 1d, (2R)-2-[(2-Amino-5-{[1-(5-chloropyridin-2-yl)ethyl]sulfanyl}[1,3]thiazolo[4,5-d]pyrimidin-7-yl)amino]-4-methylpentyl dihydrogen phosphate]

% Area by HPLC (60 days) [4, 5]: 100 % Area
% Area by HPLC (60 days) [4, 6]: 98.2 % Area
Structure (SMILES): CC(C)C[C@H](COP(=O)(O)OC(C)C)Nc1nc(S[C@@H](C)c2ccccc2)nc2nc(N)sc12 [Example 1n, (2R)-2-[(2-Amino-5-{[(1S)-1-phenylethyl]sulfanyl}[1,3]thiazolo[4,5-d]pyrimidin-7-yl)amino]-4-methylpentyl 1-methylethyl hydrogen phosphate]

% Area by HPLC (60 days) [4, 5]: 82.2 % Area
% Area by HPLC (60 days) [4, 6]: 92.3 % Area
Structure (SMILES): CC(C)C[C@H](CO)Nc1nc(S[C@@H](C)c2ccc(Cl)cn2)nc2c1sc(=O)n2COP(=O)(O)O [Example 2h, [5-{[(1S)-1-(5-Chloropyridin-2-yl)ethyl]sulfanyl}-7-{[(1R)-1-(hydroxymethyl)-3-methylbutyl]amino}-2-oxo[1,3]thiazolo[4,5-d]pyrimidin-3(2H)-yl]methyl dihydrogen phosphate]

Continued, compound first:

Structure (SMILES): CC(C)C[C@H](CO)Nc1nc(S[C@@H](C)c2ccccc2)nc2nc(N)sc12 [Compound A •HCl, (2R)-2-[(2-amino-5-{[(1S)-1-phenylethyl]sulfanyl}-[1,3]thiazolo[4,5-d]pyrimidin-7-yl)amino]-4-methylpentan-1-ol. HCl]
AUC ([1]; iv, 25 mg/kg): 50.1 µM·h
AUC ([1]; po, 125 mg/kg, PO (oral gavage), 125 mg/kg (284 mol/kg)): 170 µM·h
solubility at 1 h [2]: 5 µM

Structure (SMILES): CC(C)C[C@H](CO)Nc1nc(S[C@@H](C)c2ccccc2)nc2nc(N)sc12 [Compound A, (2R)-2-[(2-amino-5-{[(1S)-1-phenylethyl]thio}[1,3]thiazolo[4,5-d]pyrimidin-7-yl)amino]-4-methylpentan-1-ol]
Compound A remaining % ([3]; 1.18 mg/mL in water, polyethylene glycol 24% (v/v), RT, 0 days): 98.5%
Compound A remaining % ([3]; 1.18 mg/mL in water, polyethylene glycol 24% (v/v), RT, 3 days): 97.7%
Compound A remaining % ([3]; 1.18 mg/mL in water, polyethylene glycol 24% (v/v), RT, 56 days): 28%
Compound A remaining % ([3]; 1.22 mg/mL in water, polyethylene glycol 24% (v/v), RT, 0 days): 98.6%
Compound A remaining % ([3]; 1.22 mg/mL in water, polyethylene glycol 24% (v/v), RT, 3 days): 98.0%
Compound A remaining % ([3]; 1.22 mg/mL in water, polyethylene glycol 24% (v/v), RT, 56 days): 31%
Compound A remaining % ([3]; 2.25 mg/mL in water, polyethylene glycol 26% (v/v), RT, 0 days): 98.5%
Compound A remaining % ([3]; 2.25 mg/mL in water, polyethylene glycol 26% (v/v), RT, 3 days): 97.7%
Compound A remaining % ([3]; 2.25 mg/mL in water, polyethylene glycol 26% (v/v), RT, 56 days): 35%
Compound A remaining % ([3]; 3.2 mg/mL in water, polyethylene glycol 28% (v/v), ethanol 0, RT, 0 days): 98.4%
Compound A remaining % ([3]; 3.2 mg/mL in water, polyethylene glycol 28% (v/v), ethanol 0, RT, 14 days): 88.1%
Compound A remaining % ([3]; 3.2 mg/mL in water, polyethylene glycol 28% (v/v), ethanol 0, RT, 70 days): 60.7%
Compound A remaining % ([3]; 4.0 mg/mL in water, polyethylene glycol 25% (v/v), ethanol 3% (v/v), RT, 0 days): 98.4%
Compound A remaining % ([3]; 4.0 mg/mL in water, polyethylene glycol 25% (v/v), ethanol 3% (v/v), RT, 14 days): 92.3%
Compound A remaining % ([3]; 4.0 mg/mL in water, polyethylene glycol 25% (v/v), ethanol 3% (v/v), RT, 70 days): 75.1%
Degradation products observed on storage in aqueous solution [3]: the debenzylated thiol and the corresponding disulfide together with phenyl ethanol and minor amounts of styrene
Aqueous solubility (in words) [3]: not possible to dissolve
Stability of aqueous formulations to storage (in words) [3]: unstable to storage at room temperature
Compound A % area ([3]; RT, 0 days): 98.4% area
Compound A % area ([3]; RT, 4 days): 96.7% area
Plasma Compound A AUC ([1]; male CD1 mice, IV, 25 mg/kg): 45.92 µM·h
AUC ([1]; po, 120 mg/kg, PO (oral gavage), 120 mg/kg (297 mol/kg)): 92.6 µM·h

Structure (SMILES): CC(C)C[C@H](COP(=O)(O)O)Nc1nc(S[C@@H](C)c2ccccc2)nc2nc(N)sc12 [Example 1, (2R)-2-[(2-Amino-5-{[(1S)-1-phenylethyl]sulfanyl}[1,3]thiazolo[4,5-d]pyrimidin-7-yl)amino]-4-methylpentyl dihydrogen phosphate]
Degradation products observed on storage in aqueous solution [3]: not observed
Example 1 % area ([3]; RT, 0 days of storage): 99.6 % area
Example 1 % area ([3]; RT, 4 days of storage): 99.6 % area
Example 1 % area ([3]; RT, 13 days of storage): 99.6 % area
Example 1 % area ([3]; RT, 20 days of storage): 99.6 % area
Example 1 % area ([3]; RT, 40 days of storage): 99.6 % area
Aqueous solubility (in words) [3]: improved aqueous solubility (no co-solvents required)
Stability of aqueous formulations to storage (in words) [3]: unexpectedly pronounced stability over Compound A
% Area by HPLC (60 days) ([4]; Example 1 (no salt), aqueous solution 10 mg/mL, 40° C.): 100 % Area
solubility at 1 h [2]: 118 µM

Structure (SMILES): CC(C)C[C@H](COP(=O)(O)O)Nc1nc(S[C@@H](C)c2ccc(Cl)cn2)nc2[nH]c(=O)sc12 [Example 3, (2R)-2-[(5-{[(1S)-1-(5-chloropyridin-2-yl)ethyl]sulfanyl}-2-oxo-2,3-dihydro[1,3]thiazolo[4,5-d]pyrimidin-7-yl)amino]-4-methylpentyl dihydrogen phosphate]
% Area by HPLC (60 days) [4, 5]: 100 % Area
% Area by HPLC (60 days) [4, 6]: 99.6 % Area
